Data taken from PubChem BioAssay AID1963864 (Molecular Pharmacology Branch, DTP, NCI, 2024).

Tested on: KRAS PDC multicell spheroid viability
Assay: Anticancer human tumor 521955-158-R6-J3-PDC patient-derived pancreatic carcinoma cell line growth inhibition [KRAS2]
Conditions: for viability, T/C: stronger effect = lower value; active means viability on the fitted dose curve at most 10% of control; inactive means the rest
Procedure, shortened: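 KRAS-mutant tumor cells were grown as spheroids with HUVEC endothelial cells and human MSCs as stroma. Targeted agents were tested alone and with KRAS pathway inhibitors. Doses started at or near clinical Cmax, or 10 microM, descending half-log.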

[1] = curve of first compound, second compound 0.0316 µM
[2] = curve of first compound, second compound 0.1 µM
[3] = curve of first compound, second compound 0.316 µM
[4] = curve of first compound, second compound 1 µM
[5] = curve of first compound, second compound 3.16 µM
[6] = second compound 0.0316 µM, first compound 0.0316 µM
[7] = second compound 0.0316 µM, first compound 0.1 µM
[8] = second compound 0.0316 µM, first compound 0.316 µM
[9] = second compound 0.0316 µM, first compound 1 µM
[10] = second compound 0.0316 µM, first compound 3.16 µM
[11] = second compound 0.0316 µM, first compound 10 µM
[12] = second compound 0.1 µM, first compound 0.0316 µM
[13] = second compound 0.1 µM, first compound 0.1 µM
[14] = second compound 0.1 µM, first compound 0.316 µM
[15] = second compound 0.1 µM, first compound 1 µM
[16] = second compound 0.1 µM, first compound 3.16 µM
[17] = second compound 0.1 µM, first compound 10 µM
[18] = second compound 0.316 µM, first compound 0.0316 µM
[19] = second compound 0.316 µM, first compound 0.1 µM
[20] = second compound 0.316 µM, first compound 0.316 µM
[21] = second compound 0.316 µM, first compound 1 µM
[22] = second compound 0.316 µM, first compound 3.16 µM
[23] = second compound 0.316 µM, first compound 10 µM
[24] = second compound 1 µM, first compound 0.0316 µM
[25] = second compound 1 µM, first compound 0.1 µM
[26] = second compound 1 µM, first compound 0.316 µM
[27] = second compound 1 µM, first compound 1 µM
[28] = second compound 1 µM, first compound 3.16 µM
[29] = second compound 1 µM, first compound 10 µM
[30] = second compound 3.16 µM, first compound 0.0316 µM
[31] = second compound 3.16 µM, first compound 0.1 µM
[32] = second compound 3.16 µM, first compound 0.316 µM
[33] = second compound 3.16 µM, first compound 1 µM
[34] = second compound 3.16 µM, first compound 3.16 µM
[35] = second compound 3.16 µM, first compound 10 µM
[36] = curve of first compound, second compound 10 µM
[37] = second compound 0.1 µM, first compound 0.01 µM
[38] = second compound 0.316 µM, first compound 0.01 µM
[39] = second compound 1 µM, first compound 0.01 µM
[40] = second compound 3.16 µM, first compound 0.01 µM
[41] = second compound 10 µM, first compound 0.01 µM
[42] = second compound 10 µM, first compound 0.0316 µM
[43] = second compound 10 µM, first compound 0.1 µM
[44] = second compound 10 µM, first compound 0.316 µM
[45] = second compound 10 µM, first compound 1 µM
[46] = second compound 10 µM, first compound 3.16 µM
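Further: drug exposure lasted seven days.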
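Wherever viability, T/C is given: 100% = DMSO vehicle wells and lower means fewer viable cells.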

CC(C)NCC(C(=O)N1CCN(c2ncnc3c2C(C)CC3O)CC1)c1ccc(Cl)cc1 (configuration not stated) + C=CC(=O)N1CCN(c2nc(OCC3CCCN3C)nc3c2CCN(c2cccc4cccc(C)c24)C3)CC1CC#N
> 10 µM: IC50 [1] | IC50 [2] | IC50 [3] | IC50 [4]
inactive: viability, T/C [6] 80.4% | viability, T/C [7] 86.4% | viability, T/C [8] 84.4% | viability, T/C [9] 75.9% | viability, T/C [10] 76.3% | viability, T/C [11] 65% | viability, T/C [12] 76.8% | viability, T/C [13] 87.5% | viability, T/C [14] 74.4% | viability, T/C [15] 66.2% | viability, T/C [16] 74.3% | viability, T/C [17] 57.4% | viability, T/C [18] 79.1% | viability, T/C [19] 74.2% | viability, T/C [20] 74.3% | viability, T/C [21] 66.7% | viability, T/C [22] 74.3% | viability, T/C [23] 65.1% | viability, T/C [24] 63.3% | viability, T/C [25] 59% | viability, T/C [26] 68.5% | viability, T/C [27] 58.9% | viability, T/C [28] 58.3% | viability, T/C [29] 57.4% | viability, T/C [30] 43.9% | viability, T/C [31] 38% | viability, T/C [32] 35.2% | viability, T/C [33] 29.1% | viability, T/C [34] 25.1% | viability, T/C [35] 15.8%
< 0.0316 µM: IC50 [5]

COc1cc(Nc2ncc3c(n2)-c2ccc(Cl)cc2C(c2c(F)cccc2OC)=NC3)ccc1C(=O)O + C=CC(=O)N1CCN(c2nc(OCC3CCCN3C)nc3c2CCN(c2cccc4cccc(C)c24)C3)CC1CC#N
inactive: viability, T/C [6] 95.3% | viability, T/C [7] 86.4% | viability, T/C [8] 87.3% | viability, T/C [9] 88.1% | viability, T/C [10] 89.5% | viability, T/C [11] 83.6% | viability, T/C [12] 92.2% | viability, T/C [13] 91% | viability, T/C [14] 87.7% | viability, T/C [15] 91% | viability, T/C [16] 92% | viability, T/C [17] 97.9% | viability, T/C [18] 86.2% | viability, T/C [19] 87.4% | viability, T/C [20] 79.8% | viability, T/C [21] 78.1% | viability, T/C [22] 85.9% | viability, T/C [23] 86.4% | viability, T/C [24] 78% | viability, T/C [25] 66% | viability, T/C [26] 82.2% | viability, T/C [27] 76.1% | viability, T/C [28] 82.7% | viability, T/C [29] 77.3% | viability, T/C [30] 25.6% | viability, T/C [31] 25.7% | viability, T/C [32] 18.3% | viability, T/C [33] 53.4% | viability, T/C [34] 59.4% | viability, T/C [35] 29.2%
< 0.0316 µM: IC50 [5]
> 10 µM: IC50 [1] | IC50 [2] | IC50 [3] | IC50 [4]

CCN1CCN(Cc2ccc(Nc3ncc(F)c(-c4cc(F)c5nc(C)n(C(C)C)c5c4)n3)nc2)CC1
inactive: viability, T/C (compound 0.00316 µM) 101% [middle of 5 runs] | viability, T/C (compound 0.01 µM) 86.9% [middle of 5 runs] | viability, T/C (compound 0.0316 µM) 85.5% [middle of 5 runs] | viability, T/C (compound 0.1 µM) 81.5% [middle of 5 runs] | viability, T/C (compound 0.316 µM) 88.2% [middle of 5 runs] | viability, T/C (compound 1 µM) 95.5% [middle of 5 runs]
> 1 µM: IC50 (curve of compound)

CC1COCCN1c1cc(-c2ccnn2C)c2ccnc(-c3ccn[nH]3)c2n1 (configuration not stated) + CNCc1ccccc1-c1csc(C(C)Nc2nc(C)nc3cc(OC)c(OC)cc23)c1
> 3.16 µM: IC50 [2] | IC50 [3] | IC50 [4]
active: viability, T/C [40] 0.45% | viability, T/C [30] 0.29% | viability, T/C [31] 1.4% | viability, T/C [32] 0.26% | viability, T/C [33] 0.42% | viability, T/C [34] 0.43% | viability, T/C [41] 0.19% | viability, T/C [42] 0.19% | viability, T/C [43] 0.21% | viability, T/C [44] 0.16% | viability, T/C [45] 0.17% | viability, T/C [46] 0.3%
inactive: viability, T/C [37] 83.9% | viability, T/C [12] 90.4% | viability, T/C [13] 80.4% | viability, T/C [14] 76.2% | viability, T/C [15] 64.4% | viability, T/C [16] 81.2% | viability, T/C [38] 79.5% | viability, T/C [18] 70.4% | viability, T/C [19] 71% | viability, T/C [20] 57.9% | viability, T/C [21] 69.3% | viability, T/C [22] 68.4% | viability, T/C [39] 68.6% | viability, T/C [24] 63.3% | viability, T/C [25] 58.1% | viability, T/C [26] 47.3% | viability, T/C [27] 55.1% | viability, T/C [28] 63.7%
< 0.01 µM: IC50 [5] | IC50 [36]

CC1OCC2(CCN(c3cnc(Sc4ccnc(N)c4Cl)c(N)n3)CC2)C1N (configuration not stated)
inactive: viability, T/C (compound 0.0316 µM) 97.6% [middle of 4 runs] | viability, T/C (compound 0.316 µM) 86.6% [middle of 19 runs]
> 10 µM: IC50 (compound alone, run of 08/19/2021) | IC50 (compound alone, run of 08/26/2021) | IC50 (compound alone, run of 09/02/2021) | IC50 (curve of compound)

O=C(c1cc(Cc2n[nH]c(=O)c3ccccc23)ccc1F)N1CCN(C(=O)C2CC2)CC1
inactive: viability, T/C (compound 0.0316 µM) 89.9% [middle of 5 runs] | viability, T/C (compound 0.316 µM) 86.2% [middle of 5 runs] | viability, T/C (compound 3.16 µM) 78.3% [middle of 5 runs]
> 10 µM: IC50 (curve of compound)

CC(C)NCC(C(=O)N1CCN(c2ncnc3c2C(C)CC3O)CC1)c1ccc(Cl)cc1 (configuration not stated) + C=CC(=O)N1CCN(c2nc(=O)n(-c3c(C)ccnc3C(C)C)c3nc(-c4c(O)cccc4F)c(F)cc23)C(C)C1
> 10 µM: IC50 [2] | IC50 [3] | IC50 [4] | IC50 [5]
0.683 µM: IC50 [36]
inactive: viability, T/C [12] 90.8% | viability, T/C [13] 90.4% | viability, T/C [14] 74.5% | viability, T/C [15] 76.2% | viability, T/C [16] 79.5% | viability, T/C [17] 65.7% | viability, T/C [18] 94.4% | viability, T/C [19] 89% | viability, T/C [20] 72.5% | viability, T/C [21] 81.3% | viability, T/C [22] 79.8% | viability, T/C [23] 58.6% | viability, T/C [24] 93.5% | viability, T/C [25] 83.4% | viability, T/C [26] 75.8% | viability, T/C [27] 69.7% | viability, T/C [28] 66.9% | viability, T/C [29] 65.5% | viability, T/C [30] 85.7% | viability, T/C [31] 72% | viability, T/C [32] 66.5% | viability, T/C [33] 64.9% | viability, T/C [34] 57.4% | viability, T/C [35] 57.4% | viability, T/C [42] 75.3% | viability, T/C [43] 63.2% | viability, T/C [44] 54.6% | viability, T/C [45] 43.3% | viability, T/C [46] 50.3% | viability, T/C (second compound 10 µM, first compound 10 µM) 43.7%

CC(=O)Nc1cccc(-n2c(=O)n(C3CC3)c(=O)c3c(Nc4ccc(I)cc4F)n(C)c(=O)c(C)c32)c1 + C=CC(=O)N1CCN(c2nc(=O)n(-c3c(C)ccnc3C(C)C)c3nc(-c4c(O)cccc4F)c(F)cc23)C(C)C1
> 0.0316 µM: IC50 [3] | IC50 [4] | IC50 [5]
0.0255 µM: IC50 [2]
inactive: viability, T/C (second compound 0.1 µM, first compound 0.0001 µM) 97.7% | viability, T/C (second compound 0.1 µM, first compound 0.000316 µM) 96.3% | viability, T/C (second compound 0.1 µM, first compound 0.001 µM) 92% | viability, T/C (second compound 0.1 µM, first compound 0.00316 µM) 88.1% | viability, T/C [37] 69.1% | viability, T/C [12] 45.2% | viability, T/C (second compound 0.316 µM, first compound 0.0001 µM) 107% | viability, T/C (second compound 0.316 µM, first compound 0.000316 µM) 99.1% | viability, T/C (second compound 0.316 µM, first compound 0.001 µM) 95.4% | viability, T/C (second compound 0.316 µM, first compound 0.00316 µM) 83.7% | viability, T/C [38] 72.8% | viability, T/C [18] 50.5% | viability, T/C (second compound 1 µM, first compound 0.0001 µM) 102% | viability, T/C (second compound 1 µM, first compound 0.000316 µM) 99.9% | viability, T/C (second compound 1 µM, first compound 0.001 µM) 98.5% | viability, T/C (second compound 1 µM, first compound 0.00316 µM) 88.1% | viability, T/C [39] 83.4% | viability, T/C [24] 51% | viability, T/C (second compound 3.16 µM, first compound 0.0001 µM) 84.4% | viability, T/C (second compound 3.16 µM, first compound 0.000316 µM) 92.2% | viability, T/C (second compound 3.16 µM, first compound 0.001 µM) 91.9% | viability, T/C (second compound 3.16 µM, first compound 0.00316 µM) 90.7% | viability, T/C [40] 71.6% | viability, T/C [30] 52.2% | viability, T/C (second compound 10 µM, first compound 0.0001 µM) 64.4% | viability, T/C (second compound 10 µM, first compound 0.000316 µM) 69.8% | viability, T/C (second compound 10 µM, first compound 0.001 µM) 58.4% | viability, T/C (second compound 10 µM, first compound 0.00316 µM) 58.4% | viability, T/C [41] 46.3% | viability, T/C [42] 41%
0.00858 µM: IC50 [36]
